As usually defined, the inhibition is the relative decrease from the control value, in per cent. Low readings indicate a weak effect, high ones a strong effect.

Structures are written as SMILES.

One experiment concerns the target T1, HIV protease (Human immunodeficiency virus type 1 group M subtype B, UniProt P04585).
T1 construct: HIV protease is diluted in the assay buffer to a final enzyme concentration of 12.3 nanomolar, based on a molecular weight of 10,780
As to the kind of experiment: HIV protease enzyme assay (fluorescence, substrate 2-aminobenzoyl-lle-Nle-Phe(p-NO2)-Gin-ArgNH2). It is filed as biochemical. The following applies: 10 microM; HIV protease 12.3 nanomolar; substrate 80 μM; pH 6.4. The procedure:
The compounds of the present invention are effective HIV protease inhibitors. […] The calculated IC50 (inhibiting concentration 50%, i.e., the concentration at which the inhibitor compound reduces enzyme activity by 50%) values are shown in Table 1. The enzyme method is described below. The substrate is 2-aminobenzoyl-lle-Nle-Phe(p-NO2)-Gin-ArgNH2. The positive control is MVT-101 [Miller, M. et al, Science, 246, 1149 (1989)]. The assay conditions are as follows:
Assay buffer: 20 mM sodium phosphate, pH 6.4
The above described substrate is dissolved in DMSO, then diluted 10 fold in assay buffer. Final substrate concentration in the assay is 80 μM. HIV protease is diluted in the assay buffer to a final enzyme concentration of 12.3 nanomolar, based on a molecular weight of 10,780.
The final concentration of DMSO is 14% and the final concentration of glycerol is 18%. The test compound is dissolved in DMSO and diluted in DMSO to 10×the test concentration; 10 μL of the enzyme preparation is added, the materials mixed and then the mixture is incubated at ambient temperature for 15 minutes. The enzyme reaction is initiated by the addition of 40 μL of substrate. The increase in fluorescence is monitored at 4 time points (0, 8, 16 and 24 minutes) at ambient temperature. Each assay is carried out in duplicate wells.
In turn, `CC(C)CCN1C[C@@H](O)[C@H](Cc2ccccc2)NC(=O)CCSCCCCCNC1=O` [Compound 5] came in with an inhibition at 10 µM of 20%.
`CC(C)CCN1C[C@@H](O)[C@H](Cc2ccccc2)NC(=O)[C@@H](NC(=O)OCc2ccccc2)CSCCCCCCC1=O` [Compound 10] came in with an inhibition at 10 µM of 47%.
Turning to `CC(C)CCN1C[C@@H](O)[C@H](Cc2ccccc2)NC(=O)CCS(=O)(=O)CCCCCNC1=O` [Compound 17, 1-Thia-5,9,11-Triazacyclohexadecane, 7-Hydroxy-9-(3-Methylbutyl)-4,10-Dioxo-6-(Phenylmethyl)-, 1,1-Dioxide, Cis-], the inhibition at 10 µM was 21%.
On the same count and under the same terms, the figure for `CC(C)CCN1C[C@@H](O)[C@H](Cc2ccccc2)NC(=O)[C@@H](NC(=O)OCc2ccccc2)CC(=O)NCCCNC1=O` [Compound 20, Carbamic Acid, [5-Hydroxy-3-(3-Methylbutyl)-2,8,11-Trioxo-5-(Phenylmethyl)-1,3,7,12-Tetraazacyclopentadec-9-YL]-, Phenylmethylester, (98-Trans)-] is 16%.

Staying with this experiment, now noted: HIV protease 12.3 nanomolar; substrate 80 μM; pH 6.4; ambient temperature; read-out: IC50 (inhibiting concentration 50%).
Consider `CC(C)CCN1C[C@@H](O)[C@H](Cc2ccccc2)NC(=O)[C@@H](NC(=O)OCc2ccccc2)CSCCCCNC1=O` [Compound 1], for which the IC50 worked out at 340 nM.
Still for that read-out and setting: the figure for `CC(C)CCN1C[C@@H](O)[C@H](Cc2ccccc2)NC(=O)[C@@H](NC(=O)OCc2ccccc2)CSCCCCCNC1=O` [Compound 2] is 570 nM.
With `CC(C)CCN1C[C@@H](O)[C@H](Cc2ccccc2)NC(=O)[C@@H](NC(=O)OCc2ccccc2)CSCCCCCCNC1=O` [Compound 3], the IC50 was determined as 1730 nM.
The same measure, in the same setting: the figure for `CC(=O)N[C@H]1CSCCCCCNC(=O)N(CCC(C)C)C[C@@H](O)[C@H](Cc2ccccc2)NC1=O` [Compound 4] is 1600 nM.
With `CC(C)CCN1C[C@@H](O)[C@H](Cc2ccccc2)NC(=O)[C@@H](NC(=O)OCc2ccccc2)CSCCCCC(C)(C)NC1=O` [Compound 6], the IC50 amounted to 220 nM.
Still for that read-out and setting: the figure for `CC(C)CCN1C[C@@H](O)[C@H](Cc2ccccc2)NC(=O)[C@@H](NC(=O)OCc2ccccc2)C(C)(C)SCCCCCNC1=O` [Compound 7] is 1260 nM.
Consider `CC(C)CCN1C[C@@H](O)[C@H](Cc2ccccc2)NC(=O)[C@@H](NC(=O)OCc2ccccc2)CSCCCC(C)(C)NC1=O` [Compound 8], for which the IC50 is 140 nM.
Still for that read-out and setting: next, `CC(C)CCN1C[C@@H](O)[C@H](Cc2ccccc2)NC(=O)[C@@H](NC(=O)c2ccc3ccccc3n2)CSCCCCCNC1=O` [Compound 9]: 510 nM.

Source of the values: patent publication US5830888A, “Macrocyclic retroviral protease inhibitors” (Monsanto Company, priority 1995, dated 1998).
